Source: patent publication US20240228488A1 (TAKEDA PHARMACEUTICAL COMPANY LIMITED, priority 2021, published 2024)
Blank lines part the entries; values can stand above or below the molecule they belong to.

Assays:
[1] = target: human activated kallikrein enzyme (Homo sapiens, UniProt P03952); assay: Plasma kallikrein inhibition, fluorogenic PFR-AMC substrate, 500 pM activated kallikrein format; assay type: biochemical; conditions: 500 pM activated kallikrein, 300 uM PFR-AMC, 30 min preincubation, 10 min reaction; read-out: Primary Dose Response Assay: Average EC50
human activated kallikrein enzyme, sequence (P03952 391-638 limits assumed): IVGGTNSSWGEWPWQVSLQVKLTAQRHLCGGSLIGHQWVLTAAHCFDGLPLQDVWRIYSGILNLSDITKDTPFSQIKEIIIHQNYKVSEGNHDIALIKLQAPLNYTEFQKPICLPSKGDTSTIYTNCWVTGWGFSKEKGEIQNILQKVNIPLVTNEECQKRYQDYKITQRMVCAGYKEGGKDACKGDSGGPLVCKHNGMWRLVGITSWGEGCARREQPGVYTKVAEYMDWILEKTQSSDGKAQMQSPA
human activated kallikrein enzyme, sequence (P03952 20-390 partner limits assumed): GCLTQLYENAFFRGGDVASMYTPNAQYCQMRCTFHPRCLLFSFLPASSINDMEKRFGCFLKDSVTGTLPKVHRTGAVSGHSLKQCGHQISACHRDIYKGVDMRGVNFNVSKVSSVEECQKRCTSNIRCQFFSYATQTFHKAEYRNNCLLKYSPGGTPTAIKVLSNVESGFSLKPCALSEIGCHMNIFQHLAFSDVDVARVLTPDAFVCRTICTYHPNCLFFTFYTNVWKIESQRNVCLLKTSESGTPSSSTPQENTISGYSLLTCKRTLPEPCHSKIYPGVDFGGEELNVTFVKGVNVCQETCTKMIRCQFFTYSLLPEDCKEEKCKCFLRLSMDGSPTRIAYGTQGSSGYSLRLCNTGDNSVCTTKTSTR
Outline: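 High-enzyme format of the fluorogenic peptide assay, with EC50 taken from AMC signal: 500 pM activated kallikrein, 300 uM Pro-Phe-Arg-AMC, 30 min compound preincubation and 10 min reaction, all at room temperature, pH 7.5.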

plasma kallikrein = target: T1, plasma kallikrein (Homo sapiens, UniProt P03952); assay: Neat human plasma assay, FXIIa contact pathway-activated, PFR-AMC substrate; assay type: biochemical; conditions: citrated human plasma 78% final, 10 nM human FXIIa, 100 μM PFR-AMC; read-out: Human Plasma Assay: IC90
T1 construct: from tissue
T1 sequence (P03952 391-638 limits assumed): as the sequence (P03952 391-638 limits assumed) above
T1 sequence (P03952 20-390 partner limits assumed): as the sequence (P03952 20-390 partner limits assumed) above
Outline: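 Compound inhibition of plasma kallikrein measured as PFR-AMC (100 μM) cleavage rate over 5 min at room temperature in 78% citrated human plasma activated with 10 nM FXIIa (Tris pH 7.5 buffer). IC50/IC90 from 4-parameter fit of rate versus inhibitor concentration.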

Structure (SMILES): Cc1ccnc([C@H]2C[C@@H]2C(=O)Nc2cc(OCc3cn4cc(C5CC5)cc(N5CC(=O)N(C)C5=O)c4n3)ncn2)n1 (single isomer, unassigned) [Example 30]
EC50 [1]: < 0.001 µM
IC90 (plasma kallikrein): < 0.4 µM

Structure (SMILES): O=C(Nc1cc(NCc2cn3cc(C4CC4)ccc3n2)ncn1)[C@H]1C[C@@H]1c1cccc(Cl)c1 (single isomer, unassigned) [Example 57]
EC50 [1]: 0.001 to 0.01 µM
IC90 (plasma kallikrein): > 48 µM

Structure (SMILES): O=C(Nc1cc(NCc2cn3cc(C4CC4)ccc3n2)ccn1)[C@H]1C[C@@H]1c1cccc(Cl)c1 (single isomer, unassigned) [Example 117]
EC50 [1]: < 0.001 µM
IC90 (plasma kallikrein): 1.5 to 10 µM

Structure (SMILES): Cc1ccnc([C@H]2C[C@@H]2C(=O)Nc2cc(N[C@H](C)c3cn4cc(C5CC5)cc(N5CC(=O)N(C)C5=O)c4n3)ncn2)n1 (single isomer, unassigned) [Example 451]
EC50 [1]: < 0.001 µM
IC90 (plasma kallikrein): 0.4 to 1.5 µM

Structure (SMILES): COc1ccc(C#N)c([C@H]2C[C@@H]2C(=O)Nc2cc(NCc3cn4cc(C5CC5)ccc4n3)ccn2)c1 (single isomer, unassigned) [Example I-224, rac-(1S*,2S*)-2-(2-cyano-5-methoxyphenyl)-N-(4-(((6-cyclopropylimidazo[1,2-a]pyridin-2-yl)methyl)amino)pyridin-2-yl)cyclopropane-1-carboxamide]
EC50 [1]: < 0.001 µM
IC90 (plasma kallikrein): 10 to 48 µM

Structure (SMILES): Cc1ccnc([C@H]2C[C@@H]2C(=O)Nc2cc(NCc3cn4cc(C5CC5)cc(N5CC(=O)N(C)C5=O)c4n3)ncn2)n1 (single isomer, unassigned) [Example I-260]
EC50 [1]: < 0.001 µM
IC90 (plasma kallikrein): < 0.4 µM

Structure (SMILES): O=C(Nc1cc(N2C[C@@H](O)C[C@@H]2c2cn3cc(C4CC4)ccc3n2)ncn1)[C@H]1C[C@@H]1c1cc(Cl)ccn1 (single isomer, unassigned; isomer 2) [Example I-249, (1S*,2S*)-2-(4-chloropyridin-2-yl)-N-(6-((2R,4S)-2-(6-cyclopropylimidazo[1,2-a]pyridin-2-yl)-4-hydroxypyrrolidin-1-yl)pyrimidin-4-yl)cyclopropane-1-carboxamide, isomer 2]
EC50 [1]: 0.001 to 0.01 µM
IC90 (plasma kallikrein): < 0.4 µM

Structure (SMILES): Cc1ccnc([C@H]2C[C@@H]2C(=O)Nc2cc(OCc3cn4cc(C5CC5)cc(N5CC(=O)NC5=O)c4n3)ncn2)n1 [Example 32, (1S,2S)—N-(6-((6-cyclopropyl-8-(2,4-dioxoimidazolidin-1-yl)imidazo[1,2-a]pyridin-2-yl)methoxy)pyrimidin-4-yl)-2-(4-methylpyrimidin-2-yl)cyclopropane-1-carboxamide]
EC50 [1]: < 0.001 µM
IC90 (plasma kallikrein): < 0.4 µM

Structure (SMILES): O=C(Nc1cc(NCc2cn3cc(C4CC4)cc(N4CCCC4=O)c3n2)ccn1)[C@H]1C[C@@H]1c1cccc(Cl)c1 [Example 85, (1S,2S)-2-(3-chlorophenyl)-N-(4-(((6-cyclopropyl-8-(2-oxopyrrolidin-1-yl)imidazo[1,2-a]pyridin-2-yl)methyl)amino)pyridin-2-yl)cyclopropane-1-carboxamide]
EC50 [1]: < 0.001 µM
IC90 (plasma kallikrein): 0.4 to 1.5 µM

Structure (SMILES): CN1CCN(c2cc(C3CC3)cn3cc(CNc4ccnc(NC(=O)[C@H]5C[C@@H]5c5cccc(Cl)c5)n4)nc23)CC1 [Example 88, (1S,2S)-2-(3-chlorophenyl)-N-(4-(((6-cyclopropyl-8-(4-methylpiperazin-1-yl)imidazo[1,2-a]pyridin-2-yl)methyl)amino)pyrimidin-2-yl)cyclopropane-1-carboxamide]
EC50 [1]: < 0.001 µM
IC90 (plasma kallikrein): 0.4 to 1.5 µM

Structure (SMILES): O=C(Nc1cc(NCc2cn3cc(C4CC4)cc(N4CC5CC5C4=O)c3n2)ccn1)[C@H]1C[C@@H]1c1cccc(Cl)c1 (stereo partly drawn) [Example 95, (S,2S)-2-(3-chlorophenyl)-N-(4-(((6-cyclopropyl-8-(2-oxo-3-azabicyclo[3.1.0]hexan-3-yl)imidazo[1,2-a]pyridin-2-yl)methyl)amino)pyridin-2-yl)cyclopropane-1-carboxamide]
EC50 [1]: < 0.001 µM
IC90 (plasma kallikrein): 1.5 to 10 µM

Structure (SMILES): O=C(Nc1cc(NCc2cn3cc(C4CC4)cc(CO)c3n2)ccn1)[C@H]1C[C@@H]1c1cccc(Cl)c1 [Example 99, (1S,2S)-2-(3-chlorophenyl)-N-(4-(((6-cyclopropyl-8-(hydroxymethyl)imidazo[1,2-a]pyridin-2-yl)methyl)amino)pyridin-2-yl)cyclopropane-1-carboxamide]
EC50 [1]: < 0.001 µM
IC90 (plasma kallikrein): 0.4 to 1.5 µM

Structure (SMILES): O=C(Nc1cc(NCc2cn3cc(C4CC4)cc(N4CC(F)C4)c3n2)ccn1)[C@H]1C[C@@H]1c1cccc(Cl)c1 [Example 125, (1S,2S)-2-(3-chlorophenyl)-N-(4-(((6-cyclopropyl-8-(3-fluoroazetidin-1-yl)imidazo[1,2-a]pyridin-2-yl)methyl)amino)pyridin-2-yl)cyclopropane-1-carboxamide]
EC50 [1]: 0.001 to 0.01 µM
IC90 (plasma kallikrein): 10 to 48 µM

Structure (SMILES): CN1CCN(c2cc(C3CC3)cn3cc(CNc4ccnc(NC(=O)[C@H]5C[C@@H]5c5cccc(Cl)c5)c4)nc23)C(=O)C1 [Example 127, (1S,2S)-2-(3-chlorophenyl)-N-(4-(((6-cyclopropyl-8-(4-methyl-2-oxopiperazin-1-yl)imidazo[1,2-a]pyridin-2-yl)methyl)amino)pyridin-2-yl)cyclopropane-1-carboxamide]
EC50 [1]: < 0.001 µM
IC90 (plasma kallikrein): < 0.4 µM

The remaining lines, values ahead:

EC50 [1]: < 0.001 µM
IC90 (plasma kallikrein): 0.4 to 1.5 µM
Structure (SMILES): Cc1ccnc([C@H]2C[C@@H]2C(=O)Nc2nccc(N3C[C@@H](O)C[C@@H]3c3cn4cc(C5CC5)cc(N5CC(=O)N(C)C5=O)c4n3)n2)n1 (relative stereo) [Example 541, rac-(1S*,2S*)—N-(4-((2R,4S)-2-(6-cyclopropyl-8-(3-methyl-2,4-dioxoimidazolidin-1-yl)imidazo[1,2-a]pyridin-2-yl)-4-hydroxypyrrolidin-1-yl)pyrimidin-2-yl)-2-(4-methylpyrimidin-2-yl)cyclopropane-1-carboxamide]

EC50 [1]: < 0.001 µM
IC90 (plasma kallikrein): 0.4 to 1.5 µM
Structure (SMILES): Cc1ccnc([C@H]2C[C@@H]2C(=O)Nc2cc(NCc3cn4cc(C5CC5)cc(S(C)(=O)=O)c4n3)ncn2)n1 (single isomer, unassigned) [Example 324]

EC50 [1]: < 0.001 µM
IC90 (plasma kallikrein): < 0.4 µM
Structure (SMILES): Cc1ccnc([C@H]2C[C@@H]2C(=O)Nc2cc(N[C@H](C)c3cn4cc(C5CC5)cc(N5CC(=O)N(C)C5=O)c4n3)nc(C)n2)n1 (single isomer, unassigned) [Example 456]

EC50 [1]: < 0.001 µM
IC90 (plasma kallikrein): 0.4 to 1.5 µM
Structure (SMILES): CN1C(=O)CN(c2cc(C3CC3)cn3cc(CNc4cc(NC(=O)[C@H]5C[C@@H]5c5cc(Cl)ccn5)ncn4)nc23)C1=O (single isomer, unassigned) [Example I-264]

EC50 [1]: 0.001 to 0.01 µM
IC90 (plasma kallikrein): 10 to 48 µM
Structure (SMILES): O=C(Nc1cc(NCc2cn3cc(C4CC4)ccc3n2)ncn1)[C@H]1C[C@@H]1c1cc(Cl)ccn1 (single isomer, unassigned) [Example I-267, rac-(1S*,2S*)-2-(4-chloropyridin-2-yl)-N-(6-(((6-cyclopropylimidazo[1,2-a]pyridin-2-yl)methyl)amino)pyrimidin-4-yl)cyclopropane-1-carboxamide]

EC50 [1]: < 0.001 µM
IC90 (plasma kallikrein): 1.5 to 10 µM
Structure (SMILES): O=C(Nc1cc(NCc2cn3cc(C4CC4)ccc3n2)ccn1)[C@H]1C[C@@H]1c1cc(Cl)ccn1 (single isomer, unassigned) [Example I-270, rac-(1S*,2S*)-2-(4-chloropyridin-2-yl)-N-(4-(((6-cyclopropylimidazo[1,2-a]pyridin-2-yl)methyl)amino)pyridin-2-yl)cyclopropane-1-carboxamide]

EC50 [1]: < 0.001 µM
IC90 (plasma kallikrein): < 0.4 µM
Structure (SMILES): Cc1cc(OCc2cn3cc(C4CC4)cc(N4CC(=O)N(C)C4=O)c3n2)cc(NC(=O)[C@H]2C[C@@H]2c2nccc(C)n2)n1 [Example 34, (1S,2S)—N-(4-((6-cyclopropyl-8-(3-methyl-2,4-dioxoimidazolidin-1-yl)imidazo[1,2-a]pyridin-2-yl)methoxy)-6-methylpyridin-2-yl)-2-(4-methylpyrimidin-2-yl)cyclopropane-1-carboxamide]

EC50 [1]: < 0.001 µM
IC90 (plasma kallikrein): 1.5 to 10 µM
Structure (SMILES): O=C(Nc1cc(NCc2cn3cc(C4CC4)cc(N4C(=O)C5CCC4C5)c3n2)ccn1)[C@H]1C[C@@H]1c1cccc(Cl)c1 (stereo partly drawn) [Example 92, (1S,2S)-2-(3-chlorophenyl)-N-(4-(((6-cyclopropyl-8-(3-oxo-2-azabicyclo[2.2.1]heptan-2-yl)imidazo[1,2-a]pyridin-2-yl)methyl)amino)pyridin-2-yl)cyclopropane-1-carboxamide]

EC50 [1]: 0.001 to 0.01 µM
IC90 (plasma kallikrein): 10 to 48 µM
Structure (SMILES): CC(C)(O)c1cc(C2CC2)cn2cc(CNc3ccnc(NC(=O)[C@H]4C[C@@H]4c4cccc(Cl)c4)c3)nc12 [Example 122, (1S,2S)-2-(3-chlorophenyl)-N-(4-(((6-cyclopropyl-8-(2-hydroxypropan-2-yl)imidazo[1,2-a]pyridin-2-yl)methyl)amino)pyridin-2-yl)cyclopropane-1-carboxamide]

EC50 [1]: < 0.001 µM
IC90 (plasma kallikrein): 10 to 48 µM
Structure (SMILES): CC(C)c1ccc2nc(CNc3ccnc(NC(=O)[C@H]4C[C@@H]4c4cccc(Cl)c4)c3)cn2c1 [Example 123, (1S,2S)-2-(3-chlorophenyl)-N-(4-(((6-isopropylimidazo[1,2-a]pyridin-2-yl)methyl)amino)pyridin-2-yl)cyclopropane-1-carboxamide]

EC50 [1]: < 0.001 µM
IC90 (plasma kallikrein): 10 to 48 µM
Structure (SMILES): CS(=O)(=O)Nc1cc(C2CC2)cn2cc(CNc3ccnc(NC(=O)[C@H]4C[C@@H]4c4cccc(Cl)c4)c3)nc12 [Example 126, (1S,2S)-2-(3-chlorophenyl)-N-(4-(((6-cyclopropyl-8-(methylsulfonamido)imidazo[1,2-a]pyridin-2-yl)methyl)amino)pyridin-2-yl)cyclopropane-1-carboxamide]
